Here are results for 13 compounds from patent US6812232B2, “Heterocycle substituted purine derivatives as potent antiproliferative agents” (AMR Technology, Inc., priority 2001, dated 2004).

One data set has as its target T1, CyclinB/cdk1 (Homo sapiens, UniProt P06493).
T1 construct: Monoclonal antibody against cyclinB (GNS1) is added to the supernatant; endogenous in cells
In words: CyclinB/cdk1 protein kinase assay (histone H1 phosphorylation). To be noted: Table 2; complexes isolated from HeLa cells, histone H1, 15 μM ATP; replicate experimental results; read-out: IC50 CyclinB/cdkl. The format is biochemical.

The next data set has as its system HeLa S-3 cells. In words: Inhibition of cell growth (SRB), HeLa. The format is cell-based, human. To be noted: Table 2, 2 days of treatment, replicate experimental results. The protocol: D. Measuring the Inhibition of Cell Growth.
Growth inhibition (GI50) values were measured with HeLa S-3 cells selected for growth on plastic. […] One day later, a control plate was fixed by addition of TCA to 5%. After five rinses with tap water the plate was air dried and stored at 4° C. Test compounds were added to the remaining plates at 10-fold dilutions between 0.01 and 100 μM. Two days later all plates were fixed as described above. Cells were then stained by the addition of 100 […] of 0.4% sulforhodamine B (SRB) in 1% acetic acid for 30 min at 4° C. Wells were then quickly rinsed 5× with acetic acid (1%) and allowed to air dry. The SRB was then solubilized by the addition of 100 μl per well of unbuffered 10 mM Tris base. Dye was quantified by measuring absorbance at 490 nm on a Molecular Devices kinetic microplate reader. Growth at each inhibitor concentration relative to the untreated control was calculated according to the following equation: percent growth=100×(T−To)/(C−To), where T was the average optical density (OD) of the test wells after 2 days of treatment, To was the average OD of the wells in the control plate on day 0 and C was the average OD of untreated wells. Plots of percent growth versus inhibitor concentration were used to determine the GI50.

SMILES strings stand for the structures. “And” between values parts separate entries of the source, which are not always exact repeats. Identical values can stand only once. Bounds are passed on as bounds.

What is called GI50 is the concentration that inhibits growth by half. Broadly, the melting point is the temperature, or range, at which the solid turns liquid.

T1 sequence (P06493 whole entry): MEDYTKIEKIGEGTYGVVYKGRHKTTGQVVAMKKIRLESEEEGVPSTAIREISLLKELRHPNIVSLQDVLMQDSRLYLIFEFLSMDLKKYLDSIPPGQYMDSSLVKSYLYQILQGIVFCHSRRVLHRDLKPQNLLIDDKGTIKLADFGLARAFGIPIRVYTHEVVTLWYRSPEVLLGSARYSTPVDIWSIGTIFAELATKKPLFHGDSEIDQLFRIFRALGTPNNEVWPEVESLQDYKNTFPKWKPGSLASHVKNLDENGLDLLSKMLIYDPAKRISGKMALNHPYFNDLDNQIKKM
T1 sequence (P14635 whole entry partner): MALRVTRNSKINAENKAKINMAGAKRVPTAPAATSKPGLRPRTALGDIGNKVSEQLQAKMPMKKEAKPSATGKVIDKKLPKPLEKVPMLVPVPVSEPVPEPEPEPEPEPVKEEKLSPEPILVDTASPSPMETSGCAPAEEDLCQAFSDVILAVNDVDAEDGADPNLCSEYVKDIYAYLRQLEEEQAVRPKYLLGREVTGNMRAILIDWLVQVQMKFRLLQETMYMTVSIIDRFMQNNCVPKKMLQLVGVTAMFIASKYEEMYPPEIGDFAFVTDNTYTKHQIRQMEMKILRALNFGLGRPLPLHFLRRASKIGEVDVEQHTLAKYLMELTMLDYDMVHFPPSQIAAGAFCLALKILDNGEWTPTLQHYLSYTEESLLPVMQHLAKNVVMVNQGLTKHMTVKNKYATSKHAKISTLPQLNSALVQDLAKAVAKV
Method for CyclinB/cdk1: HeLa cells are blocked at the G1/S border by culturing in the presence of 2 mM thymidine for 20 h. The cells are then rinsed 3× in phosphate buffered saline and resuspended in regular medium. After 4 h of culture, the mitotic blocker, nocodazole is added to a final concentration of 75 ng/ml. […] The lysate is then clarified by centrifugation at 10,000×g for 10 min. The supernatant is collected and diluted 1:5 with Lysis Buffer. Monoclonal antibody against cyclinB (GNS1) is added to the supernatant to a final concentration of 5 μg/ml and shaken at 4° C. for 2 h. The immune complexes are then collected by the addition of 200 μl of protein agarose beads for 1 h. The beads are washed 4× in lysis buffer and 1× in kinase assay buffer.
Duplicate assays were performed at each concentration.

Take `CC[C@H](CO)Nc1nc(NCc2ccc(-c3cccc([N+](=O)[O-])c3)cc2)c2ncn(C(C)C)c2n1` [Compound 48]: the IC50 at CyclinB/cdk1 is above 10000 nM. The compound `CC(C)n1cnc2c(NCc3ccc(-c4ccsc4)cc3)nc(N[C@H]3CC[C@H](NC(=O)OC(C)(C)C)CC3)nc21` [Compound 130] displayed a GI50 in the data set on HeLa S-3 cells above 10000 nM. Turning to `CC(C)n1cnc2c(NCc3cccc(-c4ccsc4)c3)nc(N[C@H]3CC[C@H](N)CC3)nc21` [Compound 131], the melting point was in the range of 211 to 216 °C. This compound yielded a GI50 with HeLa S-3 cells (Homo sapiens, HeLa S3, 48 h) of 3000 nM. The concentration for 50% growth inhibition (GI50) with HeLa S-3 cells is 2000 nM.

The compound `CC(=O)N[C@H]1CC[C@H](Nc2nc(NCc3cccc(-c4ccsc4)c3)c3ncn(C(C)C)c3n2)CC1` [Compound 132] yielded a melting point of 209 to 211 °C. This compound also displayed a GI50 in the data set on HeLa S-3 cells (Homo sapiens, HeLa S3, 48 h) of 4000 nM. The GI50 in the data set with HeLa S-3 cells came out at 3000 nM. `CC(C)n1cnc2c(NCc3ccc(-c4ccccc4)cc3)nc(N[C@H]3CC[C@H](NC(=O)OC(C)(C)C)CC3)nc21` [Compound 133] came in with a GI50 with HeLa S-3 cells above 10000 nM. With `CC(=O)NC1CCC(Nc2nc(NCc3ccc(-c4cccc(C)c4)cc3)c3ncn(C(C)C)c3n2)CC1` (centres unmarked) [Compound 178], the GI50 in the data set with HeLa S-3 cells was 400 nM and 200 nM.

As to `COc1cccc(-c2ccc(CNc3nc(NC4CCC(NC(C)=O)CC4)nc4c3ncn4C(C)C)cc2)c1` (centres unmarked) [Compound 180], the 50% growth inhibitory concentration (GI50) in the data set on HeLa S-3 cells was 400 nM and 300 nM. Take `CC(=O)N[C@H]1CC[C@H](Nc2nc(NCc3ccc(-c4cccc(F)c4)nc3)c3ncn(C(C)C)c3n2)CC1` [Compound 188]: the melting point lay within 199 to 230 °C. `CC(=O)N[C@H]1CC[C@H](Nc2nc(NCc3ccc(-c4ccco4)nc3)c3ncn(C(C)C)c3n2)CC1` [Compound 206] had a melting point of 216 to 218 °C. As to `CC(=O)NCCNc1nc(NCc2ccc(-c3ccccc3)cc2)c2ncn(C(C)C)c2n1` [Compound 208], in the data set with HeLa S-3 cells, the concentration for 50% growth inhibition (GI50) is 4000 nM and 3000 nM.

In the data set on HeLa S-3 cells (Homo sapiens, HeLa S3, 48 h), `CC(C)n1cnc2c(NCc3ccc(-c4ccccc4)cn3)nc(N[C@H]3CC[C@H](N)CC3)nc21` [Compound 229] gave a GI50 of 400 nM. `COC(=O)NC1CCC(Nc2nc(NCc3ccc(-c4ccccc4)cc3)c3ncn(C(C)C)c3n2)CC1` (centres unmarked) [Compound 259]: the concentration for 50% growth inhibition (GI50) with HeLa S-3 cells is 300 nM and 400 nM and 700 nM. On to `CC(C)n1cnc2c(NCc3ccc(-c4ccccc4)cc3)nc(NC3CCC(NC(=O)C4CC4)CC3)nc21` (centres unmarked) [Compound 261], for which the GI50 with HeLa S-3 cells turned out to be 300 nM.
